Experimental findings from patent US20140010762A1, “IMAGING AGENTS” (Chroma Therapeutics Ltd, priority 2010, published 2014) are described below.

One test deals with KG-1 cells. The test can be described thus: Measurement of fluorescence v time by flow cytometry, non-monocytic cell line. Type of test: cell-based. The conditions noted are these: KG-1 cells (insignificant quantities of hCE-1); FIG. 5; 3000 nM; median fluorescence intensity v time. On the procedure:
(§1) The degree of fluorescence of monocytic and non-monocytic cell lines following treatment with Example 1 was assessed using flow cytometry. This assessment was performed using a BD Biosciences BD FACSCanto™ Flow Cytometry System.
(§2) The cell lines are treated with a 3000 nM solution of Example 1. The resultant mixture is sampled at times 0, 1 hr, 2 hr, 4 hr and 6 hr. At each time point a sample of the cells is harvested by centrifugation, washed and allowed to rest for 30 minutes then washed again and re-suspended in a small volume for analysis by flow cytometry (FACSCanto™ A BD Biosciences) at an excitation of 488 nm blue laser line emission measured in an FITC detector using a 502 nm long pass dichroic and a 530±15 band pass filter. Data is expressed as median fluorescence intensity (MFI) for the cell population in the FITC channel, and plotted against time in a line graph. The unstained cells are set to an MFI of 100.
For orientation: A flow cytometer gives signals particle by particle.

The test system of a further test is THP-1 cells. In words: Measurement of fluorescence v time by flow cytometry, monocytic cell line. It is filed as cell-based. The conditions noted are these: THP-1 cells (significant quantities of hCE-1); FIG. 6; 3000 nM; median fluorescence intensity v time. On the procedure: as §1, §2

With `O=C(OC1CCCC1)[C@@H](NCc1ccc(OCCCNc2ccc([N+](=O)[O-])c3nonc23)cc1)c1ccccc1` [Example 1, Cyclopentyl (2S)-[(4-{3-[(7-nitro-2,1,3-benzoxadiazol-4-yl)amino]propoxy}benzyl)amino](phenyl)ethanoate], the “increase in fluorescence following treatment” value is reported as “low increase in fluorescence” in the test on KG-1 cells and “high increase in fluorescence” with THP-1 cells.
